From ChEMBL document CHEMBL3877246, “Antileishmanial effect of new indeno-1,5-naphthyridines, selective inhibitors of Leishmania infantum type IB DNA topoisomerase” (Eur J Med Chem, 2016)
The source made the active and inactive calls. The calls are words filed in the database; no cut-off is given here.

Assays:
Leishmania infantum [1] = assay: (§1) Inhibition of Leishmania infantum recombinant topoisomerase 1B expressed in topoisomerase 1B- deficient Saccharomyces cerevisiae EKY3 assessed as decrease in relaxation of negatively supercoiled pSK DNA at 100 uM preincubated for 5 mins followed by supercoiled pSK DNA addition measured after 5 mins by aggarose gel electrophoresis
[2] = as §1, with “DNA” for “DNA at 100 uM”, “for 15” for “for 5”
Leishmania infantum [3] = assay: Antileishmanial activity against Leishmania infantum amastigotes harboring iRFP gene infected BALB/c mouse splenocytes after 48 hrs by infrared imaging method; format: functional
Leishmania infantum [4] = assay: as §1, with “for 1 min” for “for 5 mins”
[5] = Cytotoxicity against BALB/c mouse splenocytes assessed as cell viability after 48 hrs by alamar blue assay; format: toxicity, Splenocyte
Leishmania infantum [6] = assay: as §1, with “for 15” for “for 5”
[7] = Selectivity index, ratio of CC50 for BALB/c mouse splenocytes to IC50 for Leishmania infantum amastigotes harboring iRFP gene infected BALB/c mouse splenocytes; format: functional
[8] = as §1, with “of human” for “of Leishmania infantum”, “DNA” for “DNA at 100 uM”, “for 15” for “for 5”
Leishmania infantum [9] = assay: Antileishmanial activity against Leishmania infantum BCN150 promastigotes harboring iRFP gene by infrared imaging method; format: functional
Homo sapiens [10] = species: Homo sapiens; assay: as §1, with “of human” for “of Leishmania infantum”, “for 1 min” for “for 5 mins”
Homo sapiens [11] = species: Homo sapiens; assay: as §1, with “of human” for “of Leishmania infantum”, “for 15” for “for 5”
Homo sapiens [12] = species: Homo sapiens; assay: as §1, with “human” for “Leishmania infantum”

Compound | inhibition (Leishmania infantum [1]) | IC50 [2] [µM] | IC50 (Leishmania infantum [3]) [µM] | inhibition (Leishmania infantum [4]) | CC50 at 48 h [5] [µM] | inhibition (Leishmania infantum [6]) | Ratio CC50/IC50 [7] | IC50 [8] [µM] | IC50 (Leishmania infantum [9]) [µM] | inhibition (Homo sapiens [10]) | inhibition (Homo sapiens [11]) | inhibition (Homo sapiens [12])
COc1ccc(-c2nc3cccnc3c3c2Cc2ccccc2-3)cc1 | Active | 14.1 | 5.8 | Active | 116 | Active | 20.1 |  |  |  |  | 
Fc1ccc(-c2nc3cccnc3c3c2Cc2ccccc2-3)c(F)c1 |  |  | 6.07 |  | 76.9 |  | 12.7 |  |  |  |  | 
FC(F)(F)c1ccc(-c2nc3cccnc3c3c2Cc2ccccc2-3)cc1 | Active | 23.6 | 3.35 | Active | 126 | Active | 37.6 | 27.4 | 84.7 | Active | Active | Active
Fc1ccc([C@H]2Nc3cccnc3[C@H]3c4ccccc4C[C@H]32)cc1F (relative stereo) |  |  | 76.2 |  | 77.5 |  | 1.02 | 24.4 | 86.8 | Active |  | Active
CC[C@@]1(O)C(=O)OCc2c1cc1n(c2=O)Cc2cc3ccccc3nc2-1 [CAMPTOTHECIN] |  |  | 0.03 | Active | 0.62 |  | 20.7 |  | 1.12 | Active |  | 
COc1cccc([C@H]2Nc3cccnc3[C@H]3c4ccccc4C[C@H]32)c1 (relative stereo) | Active | 21.8 | 0.54 | Active | 35.8 |  | 66.3 |  | 5.4 |  |  | 
Fc1ccc([C@H]2Nc3cccnc3[C@H]3c4ccccc4C[C@H]32)cc1 (relative stereo) | Active | 49 | 2.97 |  | 57.9 | Active | 19.5 |  | 9.8 |  |  | 
c1ccc([C@H]2Nc3cccnc3[C@H]3c4ccccc4C[C@H]32)cc1 | Active | 45.2 | 65.1 |  | 94.3 | Active | 1.45 | 46.5 | > 100 | Active |  | Active
c1ccc2c(c1)C[C@@H]1[C@H]2c2ncccc2N[C@@H]1c1ccncc1 (relative stereo) |  |  | 65.2 |  | 94.6 |  | 1.45 |  | 82.5 |  |  | 
Fc1ccc([C@H]2Nc3cccnc3[C@H]3c4ccccc4C[C@H]32)c(F)c1 (relative stereo) | Active | 41.8 | 0.67 | Active | 32.1 |  | 47.9 |  | 3.7 |  |  | 
c1ccc2c(c1)Cc1c(-c3ccncc3)nc3cccnc3c1-2 |  |  |  |  | 19.9 |  |  |  | 33.9 |  |  | 
c1ccc(-c2nc3cccnc3c3c2Cc2ccccc2-3)cc1 |  |  | 63.3 |  | 90.2 |  | 1.43 |  | 70.1 |  |  | 
Cc1ccc(-c2nc3cccnc3c3c2Cc2ccccc2-3)cc1 |  |  | 58.3 |  | 68.2 |  | 1.17 |  | 69.4 |  |  | 
CCOC(=O)[C@H]1Nc2cccnc2[C@H]2c3ccccc3C[C@H]21 (relative stereo) |  |  | 78.5 |  | > 100 |  | >1.27 |  | 90.8 |  |  | 
Fc1cccc([C@H]2Nc3cccnc3[C@H]3c4ccccc4C[C@H]32)c1 (relative stereo) |  |  | 94.7 |  | 85.3 |  | 0.9 |  | 89.9 |  |  | 
CSc1ccc(-c2nc3cccnc3c3c2Cc2ccccc2-3)cc1 |  |  | 58.1 |  | 80.9 |  | 1.39 |  | 75.1 |  |  | 
c1ccc2c(c1)Cc1c(-c3ccc4ccccc4c3)nc3cccnc3c1-2 | Active | 28.1 | 11.9 | Active | 75.8 | Active | 6.4 | 83.4 | 34.6 | Active | Active | Active
Fc1ccc(-c2nc3cccnc3c3c2Cc2ccccc2-3)cc1F |  |  | 78.2 |  | 74.2 |  | 0.95 |  | 86.1 |  |  | 
O=[N+]([O-])c1ccc([C@H]2Nc3cccnc3[C@H]3c4ccccc4C[C@H]32)cc1 (relative stereo) | Active | > 100 | 91.3 |  | > 100 | Active | >1.09 | 10.7 | > 100 | Active |  | Active
O=[N+]([O-])c1ccc(-c2nc3cccnc3c3c2Cc2ccccc2-3)cc1 | Active | 42.3 | 68.3 | Active | 88.1 | Active | 1.29 | 31.6 | > 100 | Active | Active | Active
FC(F)(F)c1ccc([C@H]2Nc3cccnc3[C@H]3c4ccccc4C[C@H]32)cc1 (relative stereo) | Active | 60.6 |  |  | 4.6 | Active |  | 22.4 | 6.1 |  | Active | Active
COc1cccc(-c2nc3cccnc3c3c2Cc2ccccc2-3)c1 | Active | 29.5 | 93.3 | Active | > 100 | Active | >1.07 |  | > 100 |  |  | 
C[C@H]1Nc2cccnc2[C@H]2c3ccccc3C[C@H]21 (relative stereo) |  |  | 89.4 |  | > 100 |  | >1.12 |  | > 100 |  |  | 
Fc1ccc(-c2nc3cccnc3c3c2Cc2ccccc2-3)cc1 | Active | 14.7 | 0.74 | Active | 50.5 | Active | 68.2 | 87.7 | 34.9 | Active |  | Active
CCOC(=O)c1nc2cccnc2c2c1Cc1ccccc1-2 |  |  | 25.1 |  | 59.4 |  | 2.4 |  | 33.3 |  |  | 
C[C@@H]1[C@H](O)[C@@H](C)/C=C/C=C/C=C/C=C/C=C/C=C/C=C/[C@H](O[C@@H]2O[C@H](C)[C@@H](O)[C@H](N)[C@@H]2O)C[C@@H]2O[C@](O)(C[C@@H](O)C[C@@H](O)[C@H](O)CC[C@@H](O)C[C@@H](O)CC(=O)O[C@H]1C)C[C@H](O)[C@H]2C(=O)O [AMPHOTERICIN B] |  |  | 0.32 |  | > 20 |  | >62.5 |  | 0.77 |  |  | 
